From DBAASP
≈ marks a conversion by molar mass, not a printed value.

Key:
Experiment in all cases: ≥ marks a high value that may be exact or a test limit, other limits are often not marked, values filed in µg/mL are converted to µM
[1] = test system: Candida albicans ATCC 90028
[2] = test system: Escherichia coli ATCC 25922
[3] = test system: Staphylococcus aureus ATCC 25923
[4] = test system: Bacillus subtilis ATCC 6633
[5] = test system: Candida albicans ATCC 10231
[6] = test system: Bacillus subtilis
[7] = test system: Escherichia coli
[8] = test system: Staphylococcus aureus
[9] = test system: Candida albicans
[10] = test system: Staphylococcus aureus ATCC 29213
[11] = test system: Pseudomonas aeruginosa ATCC 27853
[12] = test system: Staphylococcus epidermidis

| Compound | MIC [1] [µM] | MIC [2] [µM] | MIC [6] [µM] | MIC [7] [µM] | further results |
| --- | --- | --- | --- | --- | --- |
| CC(C)C[C@H](NC(=O)[C@@H]1CCCN1C(=O)[C@H](CCCCN)NC(=O)[C@@H]1CCCN1C(=O)[C@H](Cc1ccc(O)cc1)NC(=O)[C@H](CCCCN)NC(=O)[C@H](Cc1c[nH]c2ccccc12)NC(=O)[C@H](CCCN=C(N)N)NC(=O)[C@@H](N)Cc1ccccc1)C(=O)N[C@@H](CCCCN)C(=O)N[C@@H](CCCN=C(N)N)C(=O)O [FRWKYPKPLKR] | – | > 65.8 | – | – | MIC [4]: ≥ 65.8 µM; MIC [3]: > 65.8 µM; MIC [5]: > 65.8 µM |
| CSCC[C@H](NC(=O)[C@H](Cc1ccccc1)NC(=O)CN)C(=O)N[C@@H](CO)C(=O)N[C@H](C(=O)N[C@@H](C)C(=O)N[C@@H](CO)C(=O)N[C@@H](CC(N)=O)C(=O)N[C@H](C(=O)N[C@@H](CC(C)C)C(=O)N[C@H](C(=O)N[C@@H](CC(N)=O)C(=O)N[C@H](C(=O)N[C@@H](C)C(=O)NCC(=O)N[C@H](C(=O)N[C@H](C(=O)N[C@@H](CCSC)C(=O)N[C@@H](CC(=O)O)C(=O)N[C@@H](CCCCN)C(=O)N[C@@H](CC(C)C)C(=O)N[C@@H](CCCCN)C(=O)N[C@H]1CSSC[C@@H](C(=O)O)NC(=O)[C@H](C)NC(=O)CNC(=O)[C@H]([C@@H](C)O)NC(=O)[C@H](Cc2ccccc2)NC(=O)[C@H](CCCCN)NC1=O)C(C)C)[C@@H](C)O)C(C)C)[C@@H](C)O)C(C)C)[C@@H](C)O [GFMSTASNVLTNVAGTVMDKLKCKFTGAC] | – | – | – | – | MIC [4]: ≥ 100 µM |
| CC[C@H](C)[C@H](NC(=O)[C@H](CCCN=C(N)N)NC(=O)[C@H](C)NC(=O)[C@@H](NC(=O)[C@@H](NC(=O)[C@H](CCCN=C(N)N)NC(=O)[C@@H](N)CCCCN)[C@@H](C)CC)C(C)C)C(=O)N[C@@H](CCCCN)C(=O)N[C@@H](C)C(=O)N[C@@H](C)C(=O)N[C@@H](CC(C)C)C(=O)N[C@@H](CCCN=C(N)N)C(=O)O [KRIVARIKAALR] | 10 (≈ 13.9 µg/mL) | 2.5 (≈ 3.49 µg/mL) | – | – | MIC [10]: 5 µM (≈ 6.97 µg/mL); MIC [11]: 2.5 µM (≈ 3.49 µg/mL) |
| CC[C@H](C)[C@H](NC(=O)[C@H](CCCN=C(N)N)NC(=O)[C@H](CCCCN)NC(=O)[C@@H](NC(=O)[C@@H](NC(=O)[C@H](CCCN=C(N)N)NC(=O)[C@@H](N)CCCCN)[C@@H](C)CC)C(C)C)C(=O)N[C@@H](CCCCN)C(=O)N[C@@H](C)C(=O)N[C@@H](Cc1ccccc1)C(=O)N[C@@H](CC(C)C)C(=O)N[C@@H](CCCN=C(N)N)C(=O)O [KRIVKRIKAFLR] | 1.25 (≈ 1.91 µg/mL) | 1.25 (≈ 1.91 µg/mL) | – | – | MIC [10]: 1.25 µM (≈ 1.91 µg/mL); MIC [11]: 1.25 µM (≈ 1.91 µg/mL) |
| CC[C@H](C)[C@H](NC(=O)[C@H](CCCN=C(N)N)NC(=O)[C@H](CCC(N)=O)NC(=O)[C@@H](NC(=O)[C@@H](NC(=O)[C@H](CCCN=C(N)N)NC(=O)[C@@H](N)CCCCN)[C@@H](C)CC)C(C)C)C(=O)N[C@@H](C)C(=O)N[C@@H](CC(=O)O)C(=O)N[C@@H](Cc1ccccc1)C(=O)N[C@@H](CC(C)C)C(=O)N[C@@H](CCCN=C(N)N)C(=O)O [KRIVQRIADFLR] | ≥ 40 | 40 (≈ 60.6 µg/mL) | – | – | MIC [10]: 40 µM (≈ 60.6 µg/mL); MIC [11]: 40 µM (≈ 60.6 µg/mL) |
| CC[C@H](C)[C@H](NC(=O)[C@H](CC(C)C)NC(=O)[C@H](C)NC(=O)[C@@H]1CCCN1C(=O)[C@H](CC(C)C)NC(=O)[C@@H](N)CC(C)C)C(=O)N[C@@H](CO)C(=O)N[C@@H](Cc1c[nH]c2ccccc12)C(=O)N[C@H](C(=O)N[C@@H](CCCCN)C(=O)N[C@@H](CCCN=C(N)N)C(=O)N[C@@H](CCCCN)C(=O)N[C@@H](CCCN=C(N)N)C(=O)N[C@@H](CCC(N)=O)C(=O)N[C@@H](CCC(N)=O)C(N)=O)[C@@H](C)CC [LLPALISWIKRKRQQ] | – | – | 1.19 (≈ 2.2 µg/mL) | 38.3 (≈ 70.8 µg/mL) | MIC [8]: 0.595 µM (≈ 1.1 µg/mL) |
| CC[C@H](C)[C@H](NC(=O)[C@H](CC(=O)O)NC(=O)[C@@H](NC(=O)[C@H](CCCCN)NC(=O)[C@H](Cc1ccccc1)NC(=O)[C@@H]1CCCN1)[C@@H](C)CC)C(=O)N[C@@H](Cc1cnc[nH]1)C(=O)N[C@@H](CC(C)C)C(=O)NCC(=O)NCC(=O)N[C@@H](Cc1ccc(O)cc1)C(N)=O [PFKIDIHLGGY] | – | – | – | – | MIC [12]: 23.8 µM (≈ 30 µg/mL) |
| CC(C)[C@H](NC(=O)[C@H](CCCCN)NC(=O)[C@@H](NC(=O)[C@H](CCC(N)=O)NC(=O)[C@H](CCCCN)NC(=O)[C@H](Cc1c[nH]c2ccccc12)NC(=O)[C@@H](N)CCCN=C(N)N)C(C)C)C(=O)N[C@@H](CCCCN)C(=O)N[C@@H](CCCN=C(N)N)C(=O)O [RWKQVKVKR] | – | 61.1 (≈ 75 µg/mL) | – | – | MIC [4]: ≥ 61.1 µM; MIC [3]: > 81.5 µM; MIC [5]: 30.5 µM (≈ 37.5 µg/mL) |

Second part, led by results:

| MIC [1] [µM] | MIC [2] [µM] | MIC [6] [µM] | MIC [7] [µM] | Compound | further results |
| --- | --- | --- | --- | --- | --- |
| 3 (≈ 7.78 µg/mL) | > 100 | – | – | CC[C@H](C)[C@H](NC(=O)[C@H](CC(C)C)NC(=O)[C@@H]1CCCN1C(=O)[C@H](CC(C)C)NC(=O)[C@@H](N)Cc1ccccc1)C(=O)N[C@@H](C)C(=O)NCC(=O)N[C@H](C(=O)N[C@@H](C)C(=O)N[C@@H](C)C(=O)N[C@@H](CO)C(=O)N[C@H](C(=O)N[C@@H](CC(C)C)C(=O)N1CCC[C@H]1C(=O)N[C@@H](CCCCN)C(=O)N[C@H](C(=O)N[C@@H](Cc1ccccc1)C(=O)N[C@H]1CSSC[C@@H](C(=O)O)NC(=O)[C@H](CCCCN)NC(=O)[C@H](CCCCN)NC(=O)[C@H]([C@@H](C)O)NC(=O)[C@H]([C@@H](C)CC)NC(=O)[C@H](Cc2ccccc2)NC1=O)[C@@H](C)CC)[C@@H](C)CC)C(C)C [FLPLIAGVAASILPKIFCFITKKC] | MIC [3]: 3 µM (≈ 7.78 µg/mL) |
| ≥ 160 | 80 (≈ 252 µg/mL) | – | – | CC[C@H](C)[C@H](NC(=O)[C@@H](NC(=O)[C@H](CC(N)=O)NC(=O)[C@H](CC(C)C)NC(=O)[C@H](CC(C)C)NC(=O)CN)C(C)C)C(=O)N[C@@H](CCCCN)C(=O)N[C@@H](CC(=O)O)C(=O)N[C@H](C(=O)N[C@@H](C)C(=O)N[C@@H](CCC(N)=O)C(=O)N[C@@H](CC(N)=O)C(=O)N[C@@H](CC(C)C)C(=O)N[C@@H](Cc1ccccc1)C(=O)N[C@@H](C)C(=O)N[C@@H](C)C(=O)N[C@@H](C)C(=O)N[C@@H](CC(C)C)C(=O)N[C@@H](CCC(=O)O)C(=O)N[C@@H](CCCCN)C(=O)N[C@@H](CC(C)C)C(=O)N[C@@H](CCCCN)C(=O)N[C@H]1CSSC[C@@H](C(=O)N[C@@H](CC(N)=O)C(=O)O)NC(=O)[C@H](CCCCN)NC(=O)[C@H]([C@@H](C)O)NC(=O)[C@H](C(C)C)NC(=O)[C@H](CCCCN)NC1=O)[C@@H](C)O [GLLNVIKDTAQNLFAAALEKLKCKVTKCN] | MIC [3]: > 160 µM |
| – | – | ≥ 50.4 | > 50.4 | CC[C@H](C)[C@H](NC(=O)CNC(=O)[C@H](CO)NC(=O)[C@H](CC(C)C)NC(=O)[C@H](CC(C)C)NC(=O)CN)C(=O)N[C@@H](CC(C)C)C(=O)NCC(=O)N[C@@H](C)C(=O)NCC(=O)N[C@@H](CCCCN)C(=O)N[C@@H](Cc1cnc[nH]1)C(=O)N[C@H](C(=O)N[C@H](C(=O)N[C@H]1CSSC[C@@H](C(=O)O)NC(=O)[C@H](CC(C)C)NC(=O)CNC(=O)[C@H](CO)NC(=O)[C@H](CC(C)C)NC(=O)CNC1=O)[C@@H](C)CC)[C@@H](C)CC [GLLSGILGAGKHIICGLSGLC] | MIC [8]: > 50.4 µM; MIC [9]: 0.555 µM (≈ 1.1 µg/mL) |
| – | – | 3.19 (≈ 12.5 µg/mL) | 1.6 (≈ 6.25 µg/mL) | CC[C@H](C)[C@H](NC(=O)CNC(=O)[C@H](CO)NC(=O)[C@H](CC(C)C)NC(=O)[C@H](CC(C)C)NC(=O)CN)C(=O)N[C@@H](CC(C)C)C(=O)NCC(=O)N[C@@H](C)C(=O)NCC(=O)N[C@@H](CCCCN)C(=O)N[C@@H](Cc1cnc[nH]1)C(=O)N[C@H](C(=O)N[C@H](C(=O)N[C@@H](CS)C(=O)NCC(=O)N[C@@H](CC(C)C)C(=O)N[C@@H](CO)C(=O)NCC(=O)N1CCC[C@H]1C(=O)N[C@H]1CSSC[C@@H](C(=O)O)NC(=O)[C@H](CCCCN)NC(=O)[C@H](C)NC(=O)[C@H](CC(C)C)NC(=O)[C@H](Cc2cnc[nH]2)NC(=O)[C@H](Cc2ccc(O)cc2)NC(=O)[C@H](CCC(=O)O)NC(=O)[C@H](C(C)C)NC(=O)[C@H](CC(=O)O)NC(=O)[C@H](CO)NC(=O)[C@H](CO)NC(=O)[C@H](CCCCN)NC(=O)[C@H](CCCN=C(N)N)NC(=O)[C@H](CC(N)=O)NC(=O)[C@H](CC(C)C)NC(=O)[C@H](CO)NC(=O)[C@H](CCC(N)=O)NC1=O)C(C)C)[C@@H](C)CC [GLLSGILGAGKHIVCGLSGPCQSLNRKSSDVEYHLAKC] | MIC [8]: 0.797 µM (≈ 3.12 µg/mL); MIC [9]: 0.797 µM (≈ 3.12 µg/mL) |
| – | – | 17.5 (≈ 30.8 µg/mL) | 47.5 (≈ 83.6 µg/mL) | CC[C@H](C)[C@H](N)C(=O)N[C@@H](CC(=O)O)C(=O)N[C@@H](Cc1c[nH]c2ccccc12)C(=O)N[C@@H](CCCCN)C(=O)N[C@@H](CCCCN)C(=O)N[C@H](C(=O)N[C@@H](Cc1ccccc1)C(=O)N[C@@H](CCC(=O)O)C(=O)N[C@@H](CCCCN)C(=O)N[C@H](C(=O)N[C@@H](CCCCN)C(=O)N[C@@H](CC(=O)O)C(=O)N[C@@H](CC(C)C)C(=O)N[C@H](C(N)=O)C(C)C)C(C)C)[C@@H](C)CC [IDWKKIFEKVKDLV] | – |
| – | – | 10 (≈ 19.2 µg/mL) | 6.25 (≈ 12 µg/mL) | CC[C@H](C)[C@H](NC(=O)[C@H](CO)NC(=O)[C@H](C)NC(=O)[C@@H](NC(=O)[C@H](CCCCN)NC(=O)[C@H](CCCCN)NC(=O)[C@H](Cc1c[nH]c2ccccc12)NC(=O)[C@@H](NC(=O)[C@@H](N)CC(N)=O)[C@@H](C)CC)[C@@H](C)CC)C(=O)N[C@@H](C)C(=O)N[C@@H](CCCCN)C(=O)N[C@@H](CCC(=O)O)C(=O)N[C@H](C(=O)N[C@@H](CC(C)C)C(=O)N[C@@H](CCCCN)C(=O)N[C@@H](C)C(=O)N[C@@H](CC(C)C)C(N)=O)C(C)C [NIWKKIASIAKEVLKAL] | – |
